# pIC50: −log10 of the molar value.
# Columns and labels:
# Colo205 tumor xenograft = assay: Inhibition of tumor growth in Colo205 tumor xenograft model; format: in vivo, BALB/c female nude mice; settings: 30 mg/kg, qd X 21, i.p.
# Procedure: Cells were implanted in BALB/c female nude mice and grown as tumor xenografts. When tumors achieved 150-250 mm^3, mice were assigned into treatment and control groups using randomized block design based upon their tumor volumes. Each group contained 6 tumor-bearing mice. Tumors were measured twice weekly in two dimensions using a caliper, and the tumor volume was calculated from two-dimensional measurements using the equation V=0.5×a×b^2 where a and b are the long and short diameters of the tumor, respectively. Relative tumor volume (RTV) was defined as TVt/TVi, the ratio of the volume on a given day (TVt) and the volume at the start of treatment (TVi). Relative tumor growth rate (T/C) was defined as RTVT/RTVC, the ratio of relative tumor volume of treatment group (RTVT) and relative tumor volume of control group (RTVC) on a given day. Inhibition of tumor growth in a Colo205 tumor xenograft model is shown below in Table 10 for compound C14.
# A549 cells = assay: Inhibition of cancer cell growth, MTT or MTS assay, A549; format: cell-based; settings: Homo sapiens, 72 h incubation
# Procedure: (§1) Inhibition of cell growth by compounds was measured using MTT or MTS assay. Tumor cell lines were purchased from ATCC (American Type Culture Collection, Manassas, Va.). All cell lines were maintained in RPMI 1640 (Hyclone) supplemented with 10% fetal bovine serum (FBS, Hyclone), glutamine (2 mM, Hyclone), and antibiotics (penicillin 100 U/mL and streptomycin 50 μg/mL) at 37° C. in a humidified atmosphere of 5% CO2 in air. Taxol (as a positive control, Sigma) and compounds were dissolved in DMSO (Sigma), and the final concentration of DMSO in the medium was 1%. Tumor cells were plated in 96-well plates at densities of about 2000 (A375) or 4000 (A549 and Colo205) cells/well of a 96-well plate and allowed to adhere/grow for 24 h. They were then treated with various concentrations of drug and incubated for 72 h. For MTT method, medium was then removed by inverting and tapping the plates. 100 μL of MTT (0.5 mg/ml) was added to each well followed by an incubated at 37° C. for 4 h. MTT was then removed and 200 μL of DMSO was added to each well, and the ODs at 570 nm were measured after a 5 second shaking cycle in a 96-well spectrophotometer. For MTS method, 20 μL MTS (CellTiter 96 Aqueous One Solution, Promega) was added to each well followed by an incubated at 37° C. for 2-4 h, solutions were then directly put in a 96-well spectrophotometer, and the ODs at 490 nm were measured.
# (§2) All concentrations of compounds were tested in triplicate and controls were averaged over 4 wells. IC50 was calculated by plotting the concentration of compound vs the percentage of inhibition in treated wells using GraphPad Prism 5. […] The scale utilized in Tables 7-9 is as follows: +++ less than 1000 nM; ++ between 1000 nM and 5000 nM; and + greater than 5000 nM. The scale utilized in […]
# A375 cells = assay: Inhibition of cancer cell growth, MTT or MTS assay, A375; format: cell-based; settings: Homo sapiens, A-375, 72 h incubation
# Procedure: as §1, §2
# KDR (VEGFR2) = biological target: T1, KDR (VEGFR2) (Homo sapiens, UniProt P35968); assay: Z'-LYTE kinase inhibition assay against KDR; format: biochemical; settings: Z'-LYTE method
# T1 construct: purchased Invitrogen
# Procedure: Inhibitory activities of compounds against KDR (VEGFR2) were also measured by Invitrogen using Z′-LYTE® Method as described above with the following modification. The 2×KDR (VEGFR2)/Tyr 01 mixture is prepared in 50 mM HEPES pH 7.5, 0.01% BRIJ-35, 10 mM MgCl2, 1 mM EGTA. The final 10 μL Kinase Reaction consists of 0.5-11.7 ng KDR (VEGFR2) and 2 μM Tyr 01 in 50 mM HEPES pH 7.5, 0.01% BRIJ-35, 10 mM MgCl2, 1 mM EGTA. After the 1 hour Kinase Reaction incubation, 5 μL of a 1:256 dilution of Development Reagent B is added.
# The scale utilized in Table 6 is as follows: +++ less than 100 nM; and ++ greater than 100 nM
# BRAF V600E = biological target: T2, BRAF V600E (Homo sapiens, UniProt P15056, V600E); assay: Z'-LYTE kinase inhibition assay against BRAF V600E; format: biochemical; settings: Z'-LYTE method
# T2 construct: purchased Invitrogen
# Procedure: (§3) Inhibitory activities Inhibitory activities of compounds against BRAF, and BRAF V600E were measured by Invitrogen using Z′-LYTE® Method as briefly described in the following. 4× Test compounds are dissolved in 1% DMSO. […] ATP solutions are diluted to a 4×ATP working concentration in Kinase Buffer (50 mM HEPES pH 7.5, 0.01% BRIJ-35, 10 mM MgCl2, 1 mM EGTA). Reaction started by 30-second shaking of mixture consisting of 2.5 μL 4× test compound, […] and 2.5 μL 4×ATP Solution on Bar-coded Corning, low volume NBS, black 384-well plate (Corning Cat. #3676). Then the mixture was incubated for 60-minute at room temperature for the kinase reaction, followed by addition of 5 μL of a 1:1024 dilution of development reagent A and 30-second plate shake. The mixture was then incubated for another 60-minute at room temperature for development reaction. Fluorescence was read by plate reader. IC50 was calculated by plotting the concentration of compound vs the percentage of inhibition in treated wells using GraphPad Prism 5.
# (§4) Table 2 and 3 show % inhibition at 1 μM of several compounds of the invention against BRAF and BRAF V600E, respectively, using Z′-LYTE® method.
# The scale utilized in Table 4 is as follows: +++ less than 100 nM; and ++ greater than 100 nM.
# Colo205 cells = assay: Inhibition of cancer cell growth, MTT or MTS assay, Colo205; format: cell-based; settings: Homo sapiens, COLO 205, 72 h incubation
# Procedure: as §1, §2
# BRAF = biological target: T3, BRAF (Homo sapiens, UniProt P15056); assay: Z'-LYTE kinase inhibition assay against BRAF; format: biochemical; settings: Z'-LYTE method
# T3 construct: purchased Invitrogen
# Procedure: as §3, §4
# T2 sequence (P15056 whole entry V600E): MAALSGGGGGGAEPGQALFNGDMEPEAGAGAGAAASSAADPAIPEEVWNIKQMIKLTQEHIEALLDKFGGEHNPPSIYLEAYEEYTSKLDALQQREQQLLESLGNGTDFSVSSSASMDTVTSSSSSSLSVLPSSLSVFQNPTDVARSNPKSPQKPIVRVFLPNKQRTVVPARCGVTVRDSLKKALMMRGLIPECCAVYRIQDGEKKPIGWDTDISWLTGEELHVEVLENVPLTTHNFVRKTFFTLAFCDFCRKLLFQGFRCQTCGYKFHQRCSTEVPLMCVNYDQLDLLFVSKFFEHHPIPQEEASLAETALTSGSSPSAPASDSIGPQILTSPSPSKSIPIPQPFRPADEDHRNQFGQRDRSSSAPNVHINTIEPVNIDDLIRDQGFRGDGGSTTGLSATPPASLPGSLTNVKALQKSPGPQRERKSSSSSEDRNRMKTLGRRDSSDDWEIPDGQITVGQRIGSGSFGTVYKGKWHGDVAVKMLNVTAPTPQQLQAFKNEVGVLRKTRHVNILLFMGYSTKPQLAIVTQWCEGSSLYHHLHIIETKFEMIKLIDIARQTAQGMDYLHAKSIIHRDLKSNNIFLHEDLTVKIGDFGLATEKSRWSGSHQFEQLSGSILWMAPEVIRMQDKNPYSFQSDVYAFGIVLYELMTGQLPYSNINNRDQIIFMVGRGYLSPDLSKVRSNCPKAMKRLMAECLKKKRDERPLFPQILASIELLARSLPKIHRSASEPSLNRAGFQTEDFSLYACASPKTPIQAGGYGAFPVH
# T1 sequence (P35968 20-1356): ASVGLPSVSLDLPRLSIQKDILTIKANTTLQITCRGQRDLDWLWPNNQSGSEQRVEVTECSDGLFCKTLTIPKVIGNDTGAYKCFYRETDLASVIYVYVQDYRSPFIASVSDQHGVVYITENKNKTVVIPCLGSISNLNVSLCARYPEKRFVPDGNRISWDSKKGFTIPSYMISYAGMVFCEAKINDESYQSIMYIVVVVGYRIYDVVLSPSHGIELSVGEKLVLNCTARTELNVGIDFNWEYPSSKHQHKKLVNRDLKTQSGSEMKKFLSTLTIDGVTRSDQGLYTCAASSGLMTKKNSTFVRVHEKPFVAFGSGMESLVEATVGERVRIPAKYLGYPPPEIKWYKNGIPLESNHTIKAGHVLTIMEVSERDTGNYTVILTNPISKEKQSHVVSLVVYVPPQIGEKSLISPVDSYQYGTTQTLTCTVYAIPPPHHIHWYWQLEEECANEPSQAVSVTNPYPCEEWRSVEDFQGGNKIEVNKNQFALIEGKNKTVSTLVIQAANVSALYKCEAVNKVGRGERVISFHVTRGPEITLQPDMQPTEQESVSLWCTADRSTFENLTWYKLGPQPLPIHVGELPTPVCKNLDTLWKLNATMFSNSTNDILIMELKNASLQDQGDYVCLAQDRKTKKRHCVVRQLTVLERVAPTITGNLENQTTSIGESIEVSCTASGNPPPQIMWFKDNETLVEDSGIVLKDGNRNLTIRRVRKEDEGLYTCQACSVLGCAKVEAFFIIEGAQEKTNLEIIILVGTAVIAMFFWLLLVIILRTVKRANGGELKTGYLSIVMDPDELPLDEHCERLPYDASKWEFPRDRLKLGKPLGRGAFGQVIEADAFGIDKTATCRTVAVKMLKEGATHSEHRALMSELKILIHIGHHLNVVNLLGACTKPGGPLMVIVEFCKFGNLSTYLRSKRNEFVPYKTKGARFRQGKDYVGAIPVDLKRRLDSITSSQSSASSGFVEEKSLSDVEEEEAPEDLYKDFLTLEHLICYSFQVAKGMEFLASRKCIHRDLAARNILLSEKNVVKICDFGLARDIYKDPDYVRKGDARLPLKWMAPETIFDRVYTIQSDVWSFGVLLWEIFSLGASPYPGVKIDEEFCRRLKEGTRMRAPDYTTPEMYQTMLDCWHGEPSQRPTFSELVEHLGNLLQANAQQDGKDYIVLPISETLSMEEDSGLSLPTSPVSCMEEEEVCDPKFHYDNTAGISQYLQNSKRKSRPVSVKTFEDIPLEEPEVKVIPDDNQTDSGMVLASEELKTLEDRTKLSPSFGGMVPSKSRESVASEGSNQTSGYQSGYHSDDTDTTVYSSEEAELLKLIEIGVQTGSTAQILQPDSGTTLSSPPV
# T3 sequence (P15056 whole entry): as the sequence (P15056 whole entry V600E) above, with E600V counted along it
pIC50 (A549 cells),pIC50 (A375 cells),inhibition at 1 µM (KDR (VEGFR2)) [%],pIC50 (KDR (VEGFR2)),inhibition at 1 µM (BRAF V600E) [%],pIC50 (BRAF V600E),pIC50 (Colo205 cells),inhibition at 1 µM (BRAF) [%],SMILES,T/C (relative tumor growth rate) (Colo205 tumor xenograft) [%],Tumor Volume Post-treatment (Colo205 tumor xenograft) [mm3],Tumor Volume Pre-treatment (Colo205 tumor xenograft; baseline) [mm3]
> 6.00,> 6.00,> 89,< 7.00,> 89,< 7.00,> 6.00,< 70,"O=C(Nc1ccc(C(=O)c2ccc3ncc(N4CCNCC4)nc3c2)cc1)Nc1ccc(F)c(C(F)(F)F)c1 [Compound C14, 1-(4-fluoro-3-(trifluoromethyl)phenyl)-3-(4-(3-(piperazin-1-yl)quinoxaline-6-carbonyl)phenyl)urea]",65,1016,233
> 6.00,> 6.00,70 to 89,> 7.00,> 89,> 7.00,5.30 to 6.00,< 70,"O=C(Nc1ccc(C(=O)c2ccc3ncc(N4CCNCC4)nc3c2)cc1)Nc1cccc(C(F)(F)F)c1 [Compound C17, 1-(4-(3-(piperazin-1-yl)quinoxaline-6-carbonyl)phenyl)-3-(3-(trifluoromethyl)phenyl)urea]",–,–,–
> 6.00,> 6.00,> 89,> 7.00,> 89,–,5.30 to 6.00,< 70,"O=C(Nc1cccc(C(F)(F)F)c1)Nc1ccc(C(=O)c2ccc3ncc(N4CCNCC4)nc3c2)c(F)c1 [Compound C21, 1-(3-fluoro-4-(3-(piperazin-1-yl)quinoxaline-6-carbonyl)phenyl)-3-(3-(trifluoromethyl)phenyl)urea]",–,–,–

# From patent US10047059B2, “Substituted quinoxalines for inhibiting kinase activity” (NEUPHARMA, INC., priority 2012, dated 2018)
